In patent US6841519B1, “Isoxazoline derivatives and herbicides containing the same as the active ingredient” (Kumiai Chemical Industry Co., Ltd., priority 1999, dated 2005):

What was measured:
Type in all cases: in vivo
rice (Or) = assay: Test for crop selectivity by paddy field soil treatment (Test Example 4), phytotoxicity to rice; settings: transplanted two-leaf stage rice, 100 g/10 a active ingredient, 21st day
Experimental: (§1) [table] <Test Example 4> Test For Crop Selectivity By Paddy Field Soil Treatment A paddy field soil was filled in a plastic pot of 100 cm^2 and subjected to puddling. Seeds of Echinochloa oryzicola Vasing. (Eo) were sowed; two-leaf stage seedlings of rice (Or) were transplanted in a depth of 2 cm; and water was filled in a depth of 3 cm. Next day, wettable powders produced in accordance with the Formulation 1 were diluted with water and dropped on the water surface. The application amount of each wettable powder was 100 g per 10 ares in terms of the active ingredient. Then, breeding was made in a greenhouse. At the 21st day from the treatment, the phytotoxicity and herbicidal effect of each wettable powder were examined in accordance with the standard shown in Table 40.

[1] = system: Echinochloa oryzicola Vasing. (Eo); assay: Test for herbicidal effect by paddy field soil treatment (Test Example 1); settings: application amount (active ingredient) 100 g/10 a, examined at the 21st day from the treatment, index per Table 40
Summary of the method: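 Eo seeds sown in puddled paddy soil under 3 cm water; next day a water-diluted wettable powder was dropped onto the water surface at 100 g active ingredient per 10 ares. Herbicidal effect scored on a standard scale 21 days after treatment, greenhouse-grown.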

[2] = system: Echinochloa oryzicola Vasing. (Eo); assay: Test for crop selectivity by paddy field soil treatment (Test Example 4), herbicidal effect on Eo; settings: 100 g/10 a active ingredient, 21st day
Experimental: as §1

[3] = system: Echinochloa crus-galli (L.) Beauv. var. crusgall (Ec); assay: Test for herbicidal effect by upland field soil treatment (Test Example 2), Ec
Summary of the method: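 Echinochloa crus-galli and Setaria viridis were sown in upland field soil and covered, then the soil surface was sprayed with water-diluted wettable powder at 100 g active ingredient per 10 ares (100 liters per 10 ares). Plants were grown in a greenhouse and scored on a standard scale on day 21.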

| SMILES | Phytotoxicity to Or (rice (Or)) | Herbicidal effect to Eo [1] | Herbicidal effect to Eo [2] | Herbicidal effect to Ec ([3]; application amount (active ingredient) 100 g/10 a, examined at the 21st day from the treatment, index per Table 40) | Herbicidal effect to Ec ([3]; 100 g/10 a active ingredient, examined at 21st day) |
| --- | --- | --- | --- | --- | --- |
| CC1(Cc2ccccc2)CC(S(=O)(=O)Cc2c(F)cccc2F)=NO1 (centres unmarked) [Compound 1-377] | 0 (A herbicidal effect or phytotoxicity of 0% to less than 10%) | 5 (A herbicidal effect or phytotoxicity of 90% or more) | 5 (A herbicidal effect or phytotoxicity of 90% or more) |  |  |
| Fc1cccc(F)c1CSC1=NOC2CCCCC12 (centres unmarked) [Compound 1-386] | 0 (A herbicidal effect or phytotoxicity of 0% to less than 10%) | 4 (A herbicidal effect or phytotoxicity of 70% to less than 90%) | 4 (A herbicidal effect or phytotoxicity of 70% to less than 90%) |  |  |
| CC1(CO)CC(S(=O)(=O)Cc2c(F)cccc2F)=NO1 (centres unmarked) [Compound 1-394] | 1 (A herbicidal effect or phytotoxicity of 10% to less than 30%) | 5 (A herbicidal effect or phytotoxicity of 90% or more) | 5 (A herbicidal effect or phytotoxicity of 90% or more) | 4 (A herbicidal effect or phytotoxicity of 70% to less than 90%) |  |
| CC1(COCc2c(F)cccc2F)CC(S(=O)(=O)Cc2c(F)cccc2F)=NO1 (centres unmarked) [Compound 1-401] | 0 (A herbicidal effect or phytotoxicity of 0% to less than 10%) | 5 (A herbicidal effect or phytotoxicity of 90% or more) | 5 (A herbicidal effect or phytotoxicity of 90% or more) |  |  |
| CC1(C(=O)O)CC(SCc2c(F)cccc2F)=NO1 (centres unmarked) [Compound 1-419] | 1 (A herbicidal effect or phytotoxicity of 10% to less than 30%) | 5 (A herbicidal effect or phytotoxicity of 90% or more) | 5 (A herbicidal effect or phytotoxicity of 90% or more) |  |  |
| CCC1(C)CC(S(=O)(=O)CCc2ccccc2)=NO1 (centres unmarked) [Compound 1-456] | 0 (A herbicidal effect or phytotoxicity of 0% to less than 10%) | 5 (A herbicidal effect or phytotoxicity of 90% or more) | 5 (A herbicidal effect or phytotoxicity of 90% or more) |  |  |
| CCC1(C)CC(S(=O)(=O)CCCc2ccccc2)=NO1 (centres unmarked) [Compound 1-457] | 1 (A herbicidal effect or phytotoxicity of 10% to less than 30%) | 5 (A herbicidal effect or phytotoxicity of 90% or more) | 5 (A herbicidal effect or phytotoxicity of 90% or more) |  |  |
| O=S(=O)(Cc1c(F)cccc1F)C1=NOC2CCCCCCC12 (centres unmarked) [Compound 1-519] | 0 (A herbicidal effect or phytotoxicity of 0% to less than 10%) | 5 (A herbicidal effect or phytotoxicity of 90% or more) | 5 (A herbicidal effect or phytotoxicity of 90% or more) |  |  |
| CC1(C)CC(S(=O)(=O)Cc2ccccc2N)=NO1 [Compound 1-552] | 1 (A herbicidal effect or phytotoxicity of 10% to less than 30%) | 4 (A herbicidal effect or phytotoxicity of 70% to less than 90%) | 4 (A herbicidal effect or phytotoxicity of 70% to less than 90%) |  |  |
| COCCOc1ccccc1CS(=O)(=O)C1=NOC(C)(C)C1 [Compound 1-579] | 1 (A herbicidal effect or phytotoxicity of 10% to less than 30%) | 5 (A herbicidal effect or phytotoxicity of 90% or more) | 5 (A herbicidal effect or phytotoxicity of 90% or more) |  |  |
| CCOCCOc1ccccc1CS(=O)(=O)C1=NOC(C)(C)C1 [Compound 1-580] | 1 (A herbicidal effect or phytotoxicity of 10% to less than 30%) | 5 (A herbicidal effect or phytotoxicity of 90% or more) | 5 (A herbicidal effect or phytotoxicity of 90% or more) |  | 5 (A herbicidal effect or phytotoxicity of 90% or more) |
| CC1(C)CC(S(=O)(=O)Cc2ccccc2OCc2ccccc2)=NO1 [Compound 1-588] | 1 (A herbicidal effect or phytotoxicity of 10% to less than 30%) | 5 (A herbicidal effect or phytotoxicity of 90% or more) | 5 (A herbicidal effect or phytotoxicity of 90% or more) |  |  |
| CC(C)COC(=O)c1ccccc1CS(=O)(=O)C1=NOC(C)(C)C1 [Compound 1-598] | 1 (A herbicidal effect or phytotoxicity of 10% to less than 30%) | 5 (A herbicidal effect or phytotoxicity of 90% or more) | 5 (A herbicidal effect or phytotoxicity of 90% or more) |  |  |
| CC1(C)CC(S(=O)(=O)Cc2ccccc2C(=O)OCc2ccccc2Cl)=NO1 [Compound 1-612] | 0 (A herbicidal effect or phytotoxicity of 0% to less than 10%) | 5 (A herbicidal effect or phytotoxicity of 90% or more) | 5 (A herbicidal effect or phytotoxicity of 90% or more) |  |  |
| CC1(C)CC(S(=O)(=O)Cc2ccccc2C(=O)OCc2cccc(Cl)c2)=NO1 [Compound 1-613] | 0 (A herbicidal effect or phytotoxicity of 0% to less than 10%) | 5 (A herbicidal effect or phytotoxicity of 90% or more) | 5 (A herbicidal effect or phytotoxicity of 90% or more) |  |  |
| CC1(C)CC(S(=O)(=O)Cc2ccccc2C(=O)OCc2ccc(Cl)cc2)=NO1 [Compound 1-614] | 0 (A herbicidal effect or phytotoxicity of 0% to less than 10%) | 5 (A herbicidal effect or phytotoxicity of 90% or more) | 5 (A herbicidal effect or phytotoxicity of 90% or more) |  |  |
| CCC(C)OC(=O)c1cccc(Cl)c1CS(=O)(=O)C1=NOC(C)(C)C1 (centres unmarked) [Compound 1-623] | 1 (A herbicidal effect or phytotoxicity of 10% to less than 30%) | 5 (A herbicidal effect or phytotoxicity of 90% or more) | 5 (A herbicidal effect or phytotoxicity of 90% or more) |  |  |
| CC(C)COC(=O)c1cccc(Cl)c1CS(=O)(=O)C1=NOC(C)(C)C1 [Compound 1-624] | 1 (A herbicidal effect or phytotoxicity of 10% to less than 30%) | 5 (A herbicidal effect or phytotoxicity of 90% or more) | 5 (A herbicidal effect or phytotoxicity of 90% or more) |  |  |
| CC1(C)CC(S(=O)(=O)Cc2c(Cl)cccc2C(=O)OCc2ccccc2)=NO1 [Compound 1-625] | 1 (A herbicidal effect or phytotoxicity of 10% to less than 30%) | 5 (A herbicidal effect or phytotoxicity of 90% or more) | 5 (A herbicidal effect or phytotoxicity of 90% or more) |  |  |
| CC1(C)CC(S(=O)(=O)Cc2c(Cl)cccc2C(=O)OCc2ccccc2Cl)=NO1 [Compound 1-626] | 0 (A herbicidal effect or phytotoxicity of 0% to less than 10%) | 5 (A herbicidal effect or phytotoxicity of 90% or more) | 5 (A herbicidal effect or phytotoxicity of 90% or more) |  |  |
| CC1(C)CC(S(=O)(=O)Cc2c(Cl)cccc2C(=O)OCc2cccc(Cl)c2)=NO1 [Compound 1-627] | 1 (A herbicidal effect or phytotoxicity of 10% to less than 30%) | 5 (A herbicidal effect or phytotoxicity of 90% or more) | 5 (A herbicidal effect or phytotoxicity of 90% or more) |  |  |
| CC1(C)CC(S(=O)(=O)Cc2c(Cl)cccc2C(=O)OCc2ccc(Cl)cc2)=NO1 [Compound 1-628] | 0 (A herbicidal effect or phytotoxicity of 0% to less than 10%) | 5 (A herbicidal effect or phytotoxicity of 90% or more) | 5 (A herbicidal effect or phytotoxicity of 90% or more) |  |  |
| CCS(=O)(=O)C1=NOC(C)(C)C1 [Compound 2-2] | 0 (A herbicidal effect or phytotoxicity of 0% to less than 10%) | 5 (A herbicidal effect or phytotoxicity of 90% or more) | 5 (A herbicidal effect or phytotoxicity of 90% or more) |  |  |
